Series [1] addresses T1, α-chymotrypsinogen A (aCgn) (Bos taurus, UniProt P00766). In words: aCgn aggregation (monomer loss) at 52.5° C. by size exclusion HPLC. The series is classed as physicochemical, Bovine. As to conditions: for aCgn t95/t95, 0 (Shelf-Life Extension Factor): isotonic concentrations, 20 mM sodium citrate pH 5, 52.5° C., time for 5% loss of protein vs no additive; for aCgn aggregation suppression compared with other salt forms / generations (FIG. 5, 6, 8): 10 mg/mL aCgn, pH 5, 52.5° C.; for rate of aCgn monomer loss compared to the reference solution: additive 0.05 M. How it is done: The aggregation of aCgn was accelerated by incubating samples at an elevated temperature. […] In addition to all aggregation experiments being conducted at that temperature, all samples contained 10 mg/mL aCgn, held at pH 5.0 using a 20 mM sodium citrate buffer. 50 μL aliquots of each protein-cosolute mixture were placed in 0.2 mL polymerase chain reaction (PCR) tubes and then incubated in a Bio-Rad Mycycler thermal cycler with a timer initiated when the thermal cycler reached the desired temperature. Each series contained 12 samples and up to 8 different mixtures were tested at the same time during any given experiment. Samples were removed periodically and immediately placed in an ice bath to quench the aggregation reaction. The length of each experiment was planned so that the extent of reaction was such that at least 20% of the protein aggregated, making changes in the rate of aggregation pronounced. After at least five minutes in the ice bath, the samples were briefly spun in a minicentrifuge to remove precipitated aggregates and then transferred to autosampler vials.
All aCgn samples were first treated with phenylmethylsulfonyl fluoride to inhibit residual amounts of active enzyme and, after dialysis, solutions were frozen, rather than lyophilized, in 0.3 mL aliquots and used within 6 months. […] Solutions for the aggregation study were prepared by first preparing a solution of the cosolute of interest in a 20 mM sodium citrate pH 5 buffer at a concentration double that of interest (adjusting the pH to 5 if needed with the appropriate acid or an 8 M sodium hydroxide solution), then mixing 0.3 mL of this solution with 0.3 mL of a thawed aCgn solution. This solution was then divided into twelve aliquots, each 50 μL in volume, and incubated at an elevated temperature, as described below.
15 μL, of each aCgn sample were injected into an Agilent 1200 series HPLC, equipped with a Zorbax GF-250 (4.6×250 mm, 4 micron) size exclusion column and a UV-Vis detector, during a sequence. The HPLC mobile phase contained 25 mM citric acid monohydrate, 25 mM sodium acetate, and 200 mM sodium chloride with the pH adjusted to 4.0 using sodium hydroxide. The flow rate was set at 1 mL/min and samples were monitored at 280 nm.
Peak area at each time point was compared to the peak area for an unstressed sample to create a monomer loss profile normalized with respect to the initial concentration. Each profile was compared to a profile for a sample containing no cosolute to determine the change in aggregation rate upon addition of the cosolute. For a control, each aggregation experimental setup had one protein solution that contained no cosolute to verify that the baseline aggregation rate remained constant amongst all experiments.
The most notable consequence of perturbing a protein's environment is the enhancement or inhibition of protein aggregation. Deyoung L R et al. (1993) Accounts Chem Res 26:614-620; Fink A L (1998) Fold Des 3:R9-R23. The guanidinium-modified dendrimers were added to model protein solutions and incubated at an elevated temperature to determine how they influence the rate of this degradation pathway. […] At low dendrimer concentrations (0.05 M), the rate of monomer loss in the presence of the surface-modified dendrimer is slower than when compared to the reference solution. However, this aggregation rate reduction is insignificant when compared to the rate reduction induced by a high concentration of other commonly used additives such as arginine hydrochloride (ArgHCl), which is also depicted in the figure. Furthermore, as the concentration of the surface-modified dendrimer is increased, the aggregation rate reduction decreases until ultimately, the rate of aggregation is increased. At a concentration of 0.2 M, the surface-modified dendrimer induced rapid aggregation, causing a 50% loss in about 10 minutes as opposed to 30 minutes for the solution containing no cosolute. […]
Background: In gel filtration, larger molecules generally elute earlier.

Series [2] concerns the target Concanavalin A (Con A) (Canavalia ensiformis, UniProt P02866). In words: Con A aggregation / shelf-life at pH 6.5 and 37° C. The format is physicochemical. The note with it: for Con A t95/t95, 0 (Shelf-Life Extension Factor): isotonic concentrations, 40 mM sodium phosphate pH 6.5, 37° C., time for 5% loss of protein vs no additive. The procedure: This Shelf-Life Extension Factor was determined by comparing the length of time, t95, for a 5% loss of protein when in the presence of the compounds to the original length of time, t95,0 for a 5% loss. For comparison purposes, isotonic concentrations (as determined by VPO) of the compounds were used and Shelf-Life Extension Factor values for commonly used excipients at isotonic concentrations are shown as well. Shelf-life values of aCgn were determined at 52.5° C. and at 37° C. for Con A.

Series [3] is described as follows: Partial molar volume from density measurements of dendrimer only solutions. The series is classed as physicochemical.
Series [4] addresses T1, α-chymotrypsinogen A (aCgn). In words: Preferential interaction with aCgn by vapor pressure osmometry (VPO). The format is physicochemical, Bovine. The note with it: for Γexp preferential interaction coefficient of aCgn: 0.17-[…] dendrimer salt, VPO. The procedure:
Osmolality measurements were carried out according to the previously described procedure. For improved accuracy, all samples were prepared gravimetrically using a Mettler Toledo balance with a precision of 0.1 mg. Partial molar volume values of the
Stock solutions of both BSA and lysozyme and stock solutions of the cosolutes were each prepared in a 40 mM sodium phosphate buffer, pH 6.0 (aCgn measurements were conducted in 20 mM sodium citrate buffer, pH 3.5 or pH 5.0). Stock solutions of the cosolutes were used so that a series of samples could be easily produced with varying solute concentrations by dilution with water and buffer. The protein stock solutions were further purified by placing the solutions under dialysis for 48 hours at room temperature against two changes of buffer (1 L each). […] To determine the concentration, samples of each stock solution were diluted gravimetrically with water to a final optical density of about 1.0 and the concentration determined spectrophotometrically with a PerkinElmer Lambda 35 UV/Vis spectrometer. It should be noted that the protein stock solutions were stored at 4° C. and used within one week of their preparation.
[formula] A Wescor Vapro® vapor pressure osmometer (model 5520) was used for all osmometry measurements. The instrument was calibrated using 0.1, 0.29, and 1 mol/kg osmolality standards provided by Wescor. Due to slight drifts in the calibration points, the instrument was recalibrated after every four measurements and the thermocouple was cleaned daily using concentrated ammonium hydroxide followed by a rinse with HPLC grade water. […] The data sets for each cosolute included at least 16 individually made solutions (both for the sets with and without the protein). Each sample contained approximately 80 μL of solution (40 μL of diluted cosolute stock solution and 40 μL of the protein stock solution). A minimum of three measurements on each solution were made. If the standard deviation for a particular solution was greater than 2 mmol/kg, more measurements were taken or another sample was prepared. For a given solute, data representing the dependence of osmolality on solute molality were fitted by a quadratic equation, with all fitting parameters floated. Data were weighted by the standard deviation of the individual osmolality measurements for the same solution using the nonlinear fitting program Igor Pro.
To gain further insight into how the modified dendrimer salts inhibit protein-protein interactions, preferential interaction coefficient (Γ23) values at various concentrations were determined, both experimentally via vapor pressure osmometry (VPO) measurements and computationally via MD simulations. The experimental results for the interaction between modified generation 0 PAMAM dendrimers and aCgn are expressed in Table 2, which summarizes the polynomial fit and uncertainty of the experimental data. Theoretical preferential interaction coefficient values were computed from the MD simulation using the procedure outlined in our previous work. Baynes B M and Trout B L (2003) J Phys Chem B 107:14058-14067; Shukla D et al. (2009) J Phys Chem B 113:12546-12554.

For series [5] the target is unchanged. Kind of series: DSC denaturation midpoint temperature (Tm) of aCgn. The format is physicochemical, Bovine. The procedure: The thermodynamic stability of aCgn in the presence of the arginine salts was determined by DSC (Microcal VP-Differential Scanning calorimeter located in the Biophysical Instrumentation Facility (BIF) at MIT). Each reading began with a minimum of three buffer-buffer up and down scans (in this case, the buffer also contains the cosolute of interest) to establish a reproducible thermal history followed by a single protein-buffer up scan. aCgn was analyzed at a concentration of 1 mg/mL in a 20 mM sodium citrate pH 5 buffer containing the cosolute of interest and a scan rate of 90° C./hour. The data was analyzed in the MicroCal Origin® plotting software. In the analysis, the last buffer-buffer reference scan was first subtracted from the data and then the data was normalized with respect to the protein concentration, cell volume, and scan rate. The baseline (which was progressed through the peak) was then subtracted from the plot and the denaturation midpoint temperature, Tm, was taken as the temperature at the peak maximum of the unfolding event. For each arginine salt, three concentrations (including zero concentration) were tested and Tm values with respect to cosolute concentration were fitted to a linear trend.
The thermostability of aCgn at 1 mg/mL in the presence of the modified dendrimers was assessed by determining the denaturation midpoint temperature (Tm) from DSC scans, which is a qualitative indicator of how the conformational stability of the protein is perturbed. Ghosh K et al. (2009) Proc Natl Acad Sci USA 106:10649-10654.

Entries after “also recorded” stand apart in the source; their conditions may differ.

As for `Cl.N=C(N)NCCC[C@H](N)C(=O)O` [ArgHCl, arginine hydrochloride, reference compound], the “aCgn t95/t95, 0 (Shelf-Life Extension Factor)” value (from here on “aCgn t95/t95”) in series [1] came out at 3.3. For the same compound, the “Con A t95/t95, 0 (Shelf-Life Extension Factor)” value (“Con A t95/t95” for short) in series [2] is listed as 0.4.

Turning to `N=C(N)NCCNC(=O)CCN(CCNC(=O)CCN(CCC(=O)NCCN(CCC(=O)NCCNC(=N)N)CCC(=O)NCCNC(=N)N)CCN(CCC(=O)NCCN(CCC(=O)NCCNC(=N)N)CCC(=O)NCCNC(=N)N)CCC(=O)NCCN(CCC(=O)NCCNC(=N)N)CCC(=O)NCCNC(=N)N)CCC(=O)NCCNC(=N)N.O=P(O)(O)O.O=P(O)(O)O.O=P(O)(O)O.O=P(O)(O)O.O=P(O)(O)O.O=P(O)(O)O.O=P(O)(O)O.O=P(O)(O)O.O=P(O)(O)O.O=P(O)(O)O.O=P(O)(O)O.O=P(O)(O)O.O=P(O)(O)O.O=P(O)(O)O` [Dend. 1 Gdm(H2PO4)], in series [1], the “aCgn aggregation suppression compared with other salt forms / generations (FIG. 5, 6, 8)” value is recorded as “lower for all concentrations” and the “aCgn t95/t95” value amounted to 16.3.

For the compound `N=C(N)NCCNC(=O)CCN(CCNC(=O)CCN(CCC(=O)NCCN(CCC(=O)NCCNC(=N)N)CCC(=O)NCCNC(=N)N)CCN(CCC(=O)NCCN(CCC(=O)NCCNC(=N)N)CCC(=O)NCCNC(=N)N)CCC(=O)NCCN(CCC(=O)NCCNC(=N)N)CCC(=O)NCCNC(=N)N)CCC(=O)NCCNC(=N)N.O=S(=O)(O)O.O=S(=O)(O)O.O=S(=O)(O)O.O=S(=O)(O)O.O=S(=O)(O)O.O=S(=O)(O)O.O=S(=O)(O)O` [Dend. 1 Gdm(SO4)1/2], the entries for the “Con A t95/t95” value in series [2], in series [2] (listed as generation 1 dendrimer with a guanidinium sulfate surface) and in series [2] (listed as sulfate form of the generation 1 modified dendrimer) were 16.7, “greater than 15” and 16.7, respectively. The “Con A shelf-life, times longer than with glycerol or sucrose” value in series [2] (pH 6.5, 37° C.) is listed as “over 10 times”.

On to `Cl.Cl.Cl.Cl.Cl.Cl.N=C(N)NCCNC(=O)CCN(CCC(=O)NCCNC(=N)N)CCN(CCC(=O)NCCNC(=N)N)CCC(=O)NCCNC(=N)N` [GdmCl, Generation 0 Polyamidoamine (PAMAM) dendrimer with a surface modified to guanidinium], for which the “V0 partial molar volume at infinite dilution” value in series [3] is on record as 0.5217 L/mol. Also, in series [4] (50 mg/mL aCgn, 20 mM sodium citrate pH 5, maximum dendrimer 0.2 mol/L), the “Γ23/[3] preferential interaction with aCgn” value is −8.1 ± 3.6 mol/mol. Moreover, the “Γexp preferential interaction coefficient of aCgn” value is on record as −1.5 in series [4] and −1.5±0.7 in series [4] (listed as chloride salt). For the same compound, in series [5], the “rate of lowering the melting temperature of aCgn relative to ordinary GdmCl” value was “double”. For the same compound, in series [5] (1 mg/mL aCgn, 20 mM sodium citrate pH 5, maximum dendrimer 0.2 mol/L), the “dTm/d[3] aCgn denaturation midpoint temperature increment” value is on record as −13.9 K * L/mol. The “rate of decrease of Tm of aCgn” value in series [5] (concentrations less than 0.2 mol/L) is given as 13.9 ° C.*M^−1. The “rate of aCgn monomer loss compared to the reference solution” value in series [1] is on record as “slower”. In series [1] (additive 0.2 M, no cosolute 30 minutes), the “time for 50% loss of aCgn monomer” value is on record as “about 10 minutes”.

`OCC(O)CO` [Glycerol, reference compound]: the “Con A t95/t95” value in series [2] amounted to 1.3.

As for `O=S(=O)([O-])[O-].[Na+].[Na+]` [Na2SO4, sodium sulfate, reference compound], in series [1], the “aCgn t95/t95” value is 3.1.

For the compound `OC[C@H]1O[C@@](CO)(O[C@H]2O[C@H](CO)[C@@H](O)[C@H](O)[C@H]2O)[C@@H](O)[C@@H]1O` [Sucrose, reference compound], the “aCgn t95/t95” value in series [1] is recorded as 1.9.

With `CC(=O)O` [acetate], in series [1], the “aCgn aggregation suppression compared with other salt forms / generations (FIG. 5, 6, 8)” value is reported as “moderately improves the performance; also recorded: only improved slightly”.

For the compound “Generation 1 PAMAM Dendrimer, Ethylene Diamine Core, with Guanidinium Chloride Surface Groups [G1-Gdn]”, the “rate of aCgn monomer loss compared to the reference solution” value in series [1] is recorded as “large increase in the rate of aggregation”.

These data come from patent US9410142B2, “Dendrimer-based excipients for the attenuation of protein aggregation” (Massachusetts Institute of Technology, priority 2010, dated 2016).
